Data: ChEMBL document CHEMBL3352027, “Pharmacologically active metabolites, combination screening and target identification-driven drug repositioning in antituberculosis drug discovery” (2014)
In brackets after ≈: the same amount, converted by molar mass.

What was measured:
Format in all cases: functional
[1] = tested on: Mycolicibacterium smegmatis; test: Antitubercular activity against Mycobacterium smegmatis by checkerboard assay in presence of spectinomycin
[2] = tested on: Mycolicibacterium smegmatis; test: Antitubercular activity against Mycobacterium smegmatis by checkerboard assay
[3] = tested on: Mycolicibacterium smegmatis; test: Antitubercular activity against Mycobacterium smegmatis by checkerboard assay in presence of rifampicin
[4] = tested on: Mycolicibacterium smegmatis; test: Antitubercular activity against Mycobacterium smegmatis by checkerboard assay in presence of 25-desacetylrifampicin
[5] = tested on: Mycolicibacterium smegmatis; test: Ratio of MIC99 for Mycobacterium smegmatis to ratio of MIC99 for Mycobacterium smegmatis in presence of kanamycin
[6] = tested on: Mycolicibacterium smegmatis; test: Antitubercular activity against Mycobacterium smegmatis by checkerboard assay in presence of kanamycin
[7] = tested on: Mycolicibacterium smegmatis; test: Ratio of MIC99 for Mycobacterium smegmatis to ratio of MIC99 for Mycobacterium smegmatis in presence of 25-desacetylrifampicin
[8] = tested on: Mycobacterium tuberculosis; test: Antitubercular activity against drug-sensitive Mycobacterium tuberculosis
[9] = tested on: Mycolicibacterium smegmatis; test: Antitubercular activity against Mycobacterium smegmatis by checkerboard assay in presence of chlorpromazine; conditions: for MIC99: Mycolicibacterium smegmatis
[10] = tested on: Mycolicibacterium smegmatis; test: Ratio of MIC99 for Mycobacterium smegmatis to ratio of MIC99 for Mycobacterium smegmatis in presence of chlorpromazine
[11] = tested on: Mycolicibacterium smegmatis; test: Ratio of MIC99 for Mycobacterium smegmatis to ratio of MIC99 for Mycobacterium smegmatis in presence of 7-hydroxy chlorpromazine
[12] = tested on: Mycolicibacterium smegmatis; test: Antitubercular activity against Mycobacterium smegmatis by checkerboard assay in presence of 7-hydroxy chlorpromazine; conditions: for MIC99: Mycolicibacterium smegmatis
[13] = tested on: Mycolicibacterium smegmatis; test: Ratio of MIC99 for Mycobacterium smegmatis to ratio of MIC99 for Mycobacterium smegmatis in presence of nor-chlorpromazine
[14] = tested on: Mycolicibacterium smegmatis; test: Ratio of MIC99 for Mycobacterium smegmatis to ratio of MIC99 for Mycobacterium smegmatis in presence of chlorpromazine-N-oxide
[15] = tested on: Mycolicibacterium smegmatis; test: Antitubercular activity against Mycobacterium smegmatis by checkerboard assay in presence of chlorpromazine-N-oxide; conditions: for MIC99: Mycolicibacterium smegmatis
[16] = tested on: Mycolicibacterium smegmatis; test: Antitubercular activity against Mycobacterium smegmatis by checkerboard assay in presence of nor-chlorpromazine; conditions: for MIC99: Mycolicibacterium smegmatis
[17] = tested on: Mycolicibacterium smegmatis; test: Antitubercular activity against Mycobacterium smegmatis by checkerboard assay in presence of chlorpromazine sulfoxide
[18] = tested on: Mycolicibacterium smegmatis; test: Antitubercular activity against Mycobacterium smegmatis by checkerboard assay in presence of chlorpromazine-N-S-dioxide
[19] = tested on: Mycolicibacterium smegmatis; test: Antitubercular activity against Mycobacterium smegmatis assessed as reduction in MIC99 by checkerboard assay in presence of chlorpromazine-N-S-dioxide relative to control
[20] = tested on: Mycolicibacterium smegmatis; test: Antitubercular activity against Mycobacterium smegmatis assessed as reduction in MIC99 by checkerboard assay in presence of chlorpromazine sulfoxide relative to control
[21] = tested on: Mycolicibacterium smegmatis; test: Antitubercular activity against Mycobacterium smegmatis assessed as reduction in MIC99 by checkerboard assay in presence of nor-chlorpromazine sulfoxide relative to control
[22] = tested on: Mycolicibacterium smegmatis; test: Antitubercular activity against Mycobacterium smegmatis by checkerboard assay in presence of nor-chlorpromazine sulfoxide

With CNCCCN1c2ccccc2[S+]([O-])c2ccc(Cl)cc21 (configuration not stated) the MIC99 [1] was 64.9 µM and the MIC99 [2] was over 2080 µM.
C[N+](C)([O-])CCCN1c2ccccc2Sc2ccc(Cl)cc21 gave an MIC99 [1] of 124 µM, an MIC99 [3] of 498 µM and an MIC99 [4] of 498 µM. For the same compound, the MIC99 [2] was 995 µM, the Ratio [5] was 0.5 and the MIC99 [6] was 498 µM. The Ratio [7] was 0.5.
With C[N+](C)([O-])CCCN1c2ccccc2[S+]([O-])c2ccc(Cl)cc21 (configuration not stated) the MIC99 [1] was 1900 µM, the MIC99 [2] was over 1900 µM and the MIC99 [6] was 475 µM.
Compound CN[C@@H]1[C@H](O)[C@H](NC)[C@H]2O[C@]3(O)[C@H](O[C@@H]2[C@H]1O)O[C@H](C)C[C@H]3NC(=O)Cc1ccccn1 has an MIC [8] of 0.8 µg/mL (≈ 1.77 µM).
CN[C@@H]1[C@H](O)[C@H](NC)[C@H]2O[C@]3(O)[C@H](O[C@@H]2[C@H]1O)O[C@H](C)C[C@H]3NC(=O)Cc1ccccc1 showed an MIC [8] of 0.8 µg/mL (≈ 1.77 µM).
Compound CN[C@@H]1[C@H](O)[C@H](NC)[C@H]2O[C@]3(O)[C@H](O[C@@H]2[C@H]1O)O[C@H](C)C[C@H]3NC(=O)Cc1ccc(F)cn1 has an MIC [8] of 0.8 µg/mL (≈ 1.7 µM).
CN[C@@H]1[C@H](O)[C@H](NC)[C@H]2O[C@]3(O)[C@H](O[C@@H]2[C@H]1O)O[C@H](C)C[C@H]3NC(=O)Cc1ccc(Cl)cn1 gave an MIC [8] of 0.8 µg/mL (≈ 1.64 µM).
For CN[C@@H]1[C@H](O)[C@H](NC)[C@H]2O[C@]3(O)[C@H](O[C@@H]2[C@H]1O)O[C@H](C)C[C@H]3NC(=O)CNC(C)(C)C, the MIC [8] was 0.8 µg/mL (≈ 1.79 µM).
In the case of CN[C@@H]1[C@H](O)[C@H](NC)[C@H]2O[C@]3(O)[C@H](O[C@@H]2[C@H]1O)O[C@H](C)C[C@H]3NC(=O)Cc1cscn1, the MIC [8] is reported as 0.8 µg/mL (≈ 1.74 µM).
In the case of CN[C@@H]1[C@H](O)[C@H](NC)[C@H]2O[C@]3(O)[C@H](O[C@@H]2[C@H]1O)O[C@H](C)C[C@H]3NC(=O)Cc1cc(Cl)ccn1, the MIC [8] is reported as 0.8 µg/mL (≈ 1.64 µM).
CN(C)CCCN1c2ccc(O)cc2Sc2ccc(Cl)cc21 [7-HYDROXYCHLORPROMAZINE] gave an MIC99 [1] of 15.6 µM, an MIC99 [3] of 31.1 µM and an MIC99 [4] of 62.2 µM. For the same compound, the MIC99 [2] was 62.2 µM, the MIC99 [9] was 62.2 µM and the MIC99 [6] was 31.1 µM. It also gave a Ratio [10] of 0.5 and a Ratio [7] of 0.5.
Compound CN(C)CCCN1c2ccccc2[S+]([O-])c2ccc(Cl)cc21 (configuration not stated) [CHLOROPROMAZINE SULFOXIDE] has an MIC99 [1] of 1990 µM, an MIC99 [2] of over 1990 µM and an MIC99 [6] of 1990 µM.
CN(C)CCCN1c2ccccc2Sc2ccc(Cl)cc21 [CHLORPROMAZINE] showed a Ratio [11] of 0.25, an MIC99 [1] of 29.3 µM and an MIC99 [12] of 29.3 µM. The MIC99 [3] was 58.6 µM, the MIC99 [4] was 29.3 µM and the MIC99 [2] was 117 µM. For the same compound, the Ratio [5] was 0.5 and the MIC99 [6] was 58.6 µM.
Work on CO[C@H]1/C=C/O[C@@]2(C)Oc3c(C)c(O)c4c(O)c(c(/C=N/N5CCN(C)CC5)c(O)c4c3C2=O)NC(=O)/C(C)=C\C=C\[C@H](C)[C@H](O)[C@@H](C)[C@@H](O)[C@@H](C)[C@H](O)[C@@H]1C [DESACETYLRIFAMPIN] yielded a Ratio [11] of 0.248, a Ratio [13] of 0.252 and a Ratio [14] of 0.252. The “fractional inhibitory concentration index (FICI)” value [12] was 0.75, the MIC99 [12] was 0.33 µM and the MIC99 [2] was 5.33 µM. The “fractional inhibitory concentration index (FICI)” value [15] was 0.75, the MIC99 [15] was 0.67 µM and the “fractional inhibitory concentration index (FICI)” value [9] was 0.5. The MIC99 [9] was 1.33 µM, the “fractional inhibitory concentration index (FICI)” value [16] was 0.5 and the MIC99 [16] was 0.67 µM. The Ratio [10] was 0.25.
NC[C@H]1O[C@H](O[C@H]2[C@H](O)[C@@H](O[C@H]3O[C@H](CO)[C@@H](O)[C@H](N)[C@H]3O)[C@H](N)C[C@@H]2N)[C@H](O)[C@@H](O)[C@@H]1O [KANAMYCIN] was tested, and the MIC99 [17] was 0.89 µM, the Ratio [11] was 0.249 and the Ratio [13] was 0.249. The Ratio [14] was 0.497, the “fractional inhibitory concentration index (FICI)” value [12] was 0.5 and the MIC99 [12] was 0.89 µM. The MIC99 [2] was 7.16 µM, the “fractional inhibitory concentration index (FICI)” value [15] was 1 and the MIC99 [15] was 0.89 µM. For the same compound, the “fractional inhibitory concentration index (FICI)” value [9] was 1, the MIC99 [9] was 3.57 µM and the MIC99 [18] was 0.89 µM. The “fold change (FC)” value [19] was 2, the “fractional inhibitory concentration index (FICI)” value [16] was 0.5 and the MIC99 [16] was 0.89 µM. For the same compound, the Ratio [10] was 0.5 and the “fold change (FC)” value [20] was 2.
With CNCCCN1c2ccccc2Sc2ccc(Cl)cc21 [NOR1-CHLORPROMAZINE] the MIC99 [1] was 34.2 µM, the MIC99 [3] was 34.2 µM and the MIC99 [4] was 34.2 µM. The MIC99 [2] was 137 µM, the Ratio [5] was 0.25 and the MIC99 [6] was 34.2 µM. The Ratio [7] was 0.25.
For CO[C@H]1/C=C/O[C@@]2(C)Oc3c(C)c(O)c4c(O)c(c(/C=N/N5CCN(C)CC5)c(O)c4c3C2=O)NC(=O)/C(C)=C\C=C\[C@H](C)[C@H](O)[C@@H](C)[C@@H](O)[C@@H](C)[C@H](OC(C)=O)[C@@H]1C [RIFAMPIN], the Ratio [11] was 0.126, the Ratio [13] was 0.254 and the Ratio [14] was 0.5. The “fractional inhibitory concentration index (FICI)” value [12] was 0.63, the MIC99 [12] was 0.32 µM and the MIC99 [2] was 2.53 µM. The “fractional inhibitory concentration index (FICI)” value [15] was 1, the MIC99 [15] was 0.63 µM and the “fractional inhibitory concentration index (FICI)” value [9] was 0.63. For the same compound, the MIC99 [9] was 0.2 µM, the “fractional inhibitory concentration index (FICI)” value [16] was 0.5 and the MIC99 [16] was 0.32 µM. It also gave a Ratio [10] of 0.126.
Compound CN[C@@H]1[C@H](O)[C@H](NC)[C@H]2O[C@@]3(O)C(=O)C[C@@H](C)O[C@H]3O[C@@H]2[C@H]1O [SPECTINOMYCIN] has an MIC99 [17] of 10.5 µM, a Ratio [11] of 0.062 and a Ratio [13] of 0.062. The Ratio [14] was 0.5, the “fractional inhibitory concentration index (FICI)” value [12] was 0.19 and the MIC99 [12] was 5.25 µM. For the same compound, the MIC99 [2] was 84.1 µM, the “fractional inhibitory concentration index (FICI)” value [15] was 0.63 and the MIC99 [15] was 84.1 µM. For the same compound, the “fractional inhibitory concentration index (FICI)” value [9] was 0.31, the MIC99 [9] was 5.25 µM and the MIC99 [18] was 42 µM. The “fold change (FC)” value [19] was 2, the “fractional inhibitory concentration index (FICI)” value [16] was 0.31 and the MIC99 [16] was 5.25 µM. For the same compound, the “fold change (FC)” value [21] was 4, the Ratio [10] was 0.062 and the “fold change (FC)” value [20] was 16. The MIC99 [22] was 21 µM.
